# From patent US20210093531A1, “DERIVATIVES OF MENTHOL AND USES THEREOF” (Board of Trustees of Northern Illinois University, priority 2019, published 2021)
# Entries after “also recorded” stand apart in the source; their conditions may differ. Marks after values point to notes of the source that are not given here.
# Experiments:
# Format in all cases: in vivo
# trained panelists [1] = assay: time-intensity analysis of cooling, lozenge application; settings: 4-minute window
# Description: In order to evaluate the potential use of menthol glycinates as […] different food, beverage and oral hygiene products, select compounds were incorporated in different application systems. A beverage model system, a lozenge and a mouthwash application were created, and time-intensity analysis was performed using trained discrimination analysis panelists. Time-Intensity (TI) is a temporal sensory method. During TI evaluations, assessors are asked to score the intensity of perception of a single attribute over consumption of the product. Compared to single point measurements, TI analysis can characterize the onset, decline and rates thereof, of particular sensory characteristics. This analysis may reveal rich information regarding the intensity of an attribute over the time domain and identify temporal perceptual differences among samples that can greatly impact the overall profile of a product. For each sample evaluation, a temporal curve is generated, based on duplication. The temporal curves for each panelist are combined to generate a combined curve for each product that is evaluated. The following distinct parameters were calculated: Imax: peak intensity or maximum observed intensity on the whole curve; […]: time point where the reaction to the stimulus is first perceived on the curve; Tmax: time position of the peak intensity on the curve; Tplateau: protraction of maximum intensity or duration of maximum intensity; Text: time point of extinction of the perception of the stimulus, defined as the position in time after the peak intensity where the measured intensity disappears (or the end of evaluation window); Iext: intensity at time of extinction or end of evaluation; R increase: slope or rate of intensity increase between […] and Tmax; R decrease: slope or rate of intensity decrease between Tmax and Text; and Area: the total area under the time-intensity curve. The formula detailed in Table 4 was employed to create the lozenge application to evaluate menthol glycinates of interest using time-intensity analysis. [table] For time-intensity (T-I) evaluation of the cooling intensity of lozenges, 9 panelists were recruited (3 male, 6 female). Panelists were trained in basic taste descriptive analysis. A sweetness reference series (intensity range 2-12) was provided to be used as cross-modality reference to aid in scaling the intensity of the cool attribute present in the lozenge samples. Panelists evaluated samples in duplicates and all samples were presented blinded and in a randomized order using a 3-digit code. Panelists were instructed to provide cooling intensity at predetermined time points throughout an evaluation window of 4 minutes. […] Evaluations were performed with at least 4 hours between them to ensure no carry over. Data analysis for generation of T-I statistics and ANOVA analysis to determine significant difference among samples was performed using R STUDIO.
# [2] = organoleptic evaluation in ethanol, propylene glycol and water; settings: for organoleptic properties, EtOH / organoleptic properties, PG / organoleptic properties (entry names no solvent): 100 ppm; for organoleptic properties, EtOH: ethanol cut in aqueous solution; for organoleptic properties, PG: propylene glycol cut in aqueous solution; for organoleptic properties (entry names no solvent): entry without solvent suffix
# Description: Stock solutions for each solution was prepared as described below to afinal concentration of 100 ppm.
# c. Mix well to achieve final concentration of 100 ppm.
# a. Prepare a stock solution of 2.5% solution in PG by adding 25 mg of menthol analog in 1 gram of PG (mix well).
# Organoleptic properties by compound are listed below for menthol derivatives in ethanol, propylene glycol, and water: […]
# trained panelists [3] = assay: time-intensity analysis of cooling, beverage model system; settings: 100 ppm, 2-minute window
# Description: In order to evaluate the potential use of menthol glycinates as […] different food, beverage and oral hygiene products, select compounds were incorporated in different application systems. A beverage model system, a lozenge and a mouthwash application were created, and time-intensity analysis was performed using trained discrimination analysis panelists. Time-Intensity (TI) is a temporal sensory method. During TI evaluations, assessors are asked to score the intensity of perception of a single attribute over consumption of the product. Compared to single point measurements, TI analysis can characterize the onset, decline and rates thereof, of particular sensory characteristics. This analysis may reveal rich information regarding the intensity of an attribute over the time domain and identify temporal perceptual differences among samples that can greatly impact the overall profile of a product. For each sample evaluation, a temporal curve is generated, based on duplication. The temporal curves for each panelist are combined to generate a combined curve for each product that is evaluated. The following distinct parameters were calculated: Imax: peak intensity or maximum observed intensity on the whole curve; […]: time point where the reaction to the stimulus is first perceived on the curve; Tmax: time position of the peak intensity on the curve; Tplateau: protraction of maximum intensity or duration of maximum intensity; Text: time point of extinction of the perception of the stimulus, defined as the position in time after the peak intensity where the measured intensity disappears (or the end of evaluation window); Iext: intensity at time of extinction or end of evaluation; R increase: slope or rate of intensity increase between […] and Tmax; R decrease: slope or rate of intensity decrease between Tmax and Text; and Area: the total area under the time-intensity curve. The formula detailed in Table 6 was employed to create a simple beverage model system to evaluate menthol glycinates of interest using time-intensity analysis. [table] For time-intensity (T-I) evaluation of the cooling attribute of the model beverage system 8 panelists were recruited (2 male, 6 female). Panelists were trained in basic taste descriptive analysis. A sweetness reference series (intensity range 2-12) was provided to be used as cross-modality reference to aid in scaling the intensity of the cool attribute present in the model beverage samples. Panelists evaluated samples in duplicates and all sample were presented blinded and in a randomized order using a 3-digit code. Panelists were instructed to hold the sample in their mouths for 30 seconds and then expectorate. During the hold period panelists were instructed to note cooling onset and intensity. After expectorating, the panelists continued to report cooling intensity at predetermined time points throughout an evaluation window of 2 minutes. Samples were presented pre-weighted, and panelists were instructed to evaluate the entire amount of sample to ensure uniformity among panelists and replicate evaluations. Evaluations were performed with at least 4 hours between them to ensure no carry over. Data analysis for generation of T-I statistics and ANOVA analysis to determine significant difference among samples was performed using R STUDIO.
Molecule,RInc (rate of intensity increase) (trained panelists [1]),Tmax (time of peak intensity) (trained panelists [1]),Rdec (trained panelists [3]),Rinc (trained panelists [3]),Tstart (trained panelists [3]),Tstart (time cooling first perceived) (trained panelists [1]),further results
"(1R,2S,5R)-2-Isopropyl-5-methylcyclohexyl 2-(isopropylamino)acetate [Product 7]",0.041^ab,210.00^a,0.02^a,0.06^b,16^c,,"organoleptic properties, EtOH ([2]; listed as XI-1-60): cooling started at 20 seconds with slight alcohol; also recorded: burn, very intense cooling profile from 20 seconds; organoleptic properties, PG ([2]; listed as XI-1-60): Up front cooling at 10 seconds with stronger cooling; also recorded: at 20 seconds, much more intense cooling than XI-"
"CC1CCC(C(C)C)C(O)C1 (centres unmarked) [Menthol, menthol]",0.053^b,180.00^b,0.03^a,0.12^a,10^a,5.00^b,"Imax (peak cooling intensity) (trained panelists [1]; 0.05 g test compound per 100 g, 2 g sample, 9 panelists): 11.53^bc^; AUC (total area under time-intensity curve) (trained panelists [1]): 2064.83^b; RDec (rate of intensity decrease) (trained panelists [1]): 0.056^b; organoleptic properties of menthol ([2]; simple solutions of PG and water or ethanol): very strong, instantaneous cooling effect; Imax (peak cooling intensity) (trained panelists [3]; 2% propylene glycol in water): 5^a; AUC (trained panelists [3]): 429.1^a; Tplateau (duration of maximum intensity) (trained panelists [3]): 23.3^a"
"CCCCN(CCCC)CC(=O)O[C@@H]1C[C@H](C)CC[C@H]1C(C)C [Product 10, (1R,2S,5R)-2-Isopropyl-5-methylcyclohexyl 2-(dibutylamino)acetate]",,210.00^a,0.06^a,0.04^b,6.1^b,,"organoleptic properties, EtOH ([2]; listed as RK-2-10): delay onset mild cooling (post 20 seconds) with a; also recorded: slight tingling and sweetness that extended past 1; organoleptic properties, PG ([2]; listed as RK-2-10): Very low intensity of cooling that slowly builds with; also recorded: a skin tingling effect. Could be a good candidate; organoleptic properties (entry names no solvent) ([2]; listed as RK-2-10): exhibited a delayed onset cooling and an upfront; also recorded: bitterness from PG"
"CC(C)[C@@H]1CC[C@@H](C)C[C@H]1OC(=O)CN(C)C(C)C [Product 16, (1R,2S,5R)-2-Isopropyl-5-methylcyclohexyl 2-(isopropyl(methyl)amino)acetate]",,204.71^a,0.02^a,0.05^b,16^c,7.85^ac,"organoleptic properties, EtOH ([2]; listed as XI-1-50): initial alcohol cooling burn with late onset cooling; also recorded: at 20 seconds and deep cooling at 60 seconds; organoleptic properties, PG ([2]; listed as XI-1-50): initial bitterness from PG cooling at 30 seconds; organoleptic properties (entry names no solvent) ([2]; listed as XI-1-50): slight delay in cooling after 20 seconds with some; also recorded: upfront bitterness coming from PG. Very intense; also recorded: building cooling post 50 seconds"
